# Source: article PMC11284788, “NN1213 – A Potent, Long-Acting, and Selective Analog of Human Amylin” (Journal of Medicinal Chemistry, 2024)
# Numbered stars: 1 amine (or outer) side, 2 acyl side, 3 side chain; on linkers, the order of the positions; unused ones are H or OH. Bridge positions count the residues as written; N and C are the ends. Side chains are listed from the residue outwards. Peptide text beside a SMILES is read from it. * marks the point of attachment. C20 diacid = O=C(O)CCCCCCCCCCCCCCCCCCC(=O)*; γGlu = O=C(O)[C@H](CCC(=O)[*:2])N[*:1]
# Assays:
# [1] = HMWP content by size-exclusion chromatography; assay type: physicochemical; conditions: covalent dimers and polymers prior to fibril formation testing, SEC, % of total absorbance area at 215 nm
# In short: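 HMWP percentage is the covalent dimer/polymer peak area relative to total absorbance area, with extinction coefficients taken as equal to the main peak. Isocratic size-exclusion elution used 50% (v/v) 2-propanol containing 0.5 M NaCl and phosphate buffer; measured on analogs prior to fibril assays.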
# [2] = ThT assay: fibril formation propensity and peptide recovery; assay type: physicochemical; conditions: for ThT, pH 7.5 lag-time / ThT, pH 4.0 lag-time: 250 μM peptide, 37 °C, 960 rpm, 45 h, lowest of four replicas, average of experiments; for ThT, pH 7.5 lag-time: 10 mM HEPES pH 7.5, 1 μM ThT; for recovery: residual dissolved peptide after 45 h of shaking, centrifugation and 0.22 μm filtration, HPLC, relative to amount before stress; for ThT, pH 4.0 lag-time: 10 mM glycylglycine pH 4.0, 1 μM ThT
# In short: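 Fibrillation lag time is read visually from ThT fluorescence-time curves (444/485 nm, 20-min reads, 45 h, 37 °C, 960 rpm shaking) of 250 μM peptide with 1 μM ThT at pH 4.0 or 7.5. The most conservative of four replicates is used. Peptide recovery is post-stress soluble peptide (HPLC, 215/276 nm) as fraction of initial.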
HMWP ([1]; analogs 1–9 (pH 7.5 series)) [%],"ThT, pH 7.5 lag-time [2] [h]",recovery ([2]; pH 7.5) [%],HMWP ([1]; analogs 10–21 (pH 4.0 series)) [%],"ThT, pH 4.0 lag-time [2] [h]",recovery ([2]; pH 4.0) [%],SMILES
2.5,>45,100,,,,CC[C@H](C)[C@H](NC(=O)[C@H](C)NC(=O)CNC(=O)[C@H](Cc1ccccc1)NC(=O)[C@H](CC(N)=O)NC(=O)[C@@H]1CCCN1C(=O)[C@H](CO)NC(=O)[C@H](CO)NC(=O)[C@H](Cc1c[nH]cn1)NC(=O)[C@H](CCCNC(=N)N)NC(=O)[C@H](CC(C)C)NC(=O)[C@H](Cc1ccccc1)NC(=O)[C@H](CC(=O)O)NC(=O)[C@H](C)NC(=O)[C@H](CC(C)C)NC(=O)[C@H](CCCNC(=N)N)NC(=O)[C@H](CCC(N)=O)NC(=O)[C@@H](NC(=O)[C@H](C)NC(=O)[C@@H]1CSSC[C@H](NC(=O)[C@@H](N)CCCCNC(=O)CC[C@H](NC(=O)CC[C@H](NC(=O)CCCCCCCCCCCCCCCCCCC(=O)O)C(=O)O)C(=O)O)C(=O)N[C@@H](CC(N)=O)C(=O)N[C@@H]([C@@H](C)O)C(=O)N[C@@H](C)C(=O)N[C@@H]([C@@H](C)O)C(=O)N1)[C@@H](C)O)C(=O)N1CCC[C@H]1C(=O)N[C@@H](CO)C(=O)N[C@@H](CO)C(=O)N[C@H](C(=O)N[C@@H](CC(N)=O)C(=O)N[C@H](C(=O)NCC(=O)N[C@@H](CO)C(=O)N[C@@H](CC(=O)O)C(=O)N[C@H](C(=O)N[C@@H](Cc1ccc(O)cc1)C(N)=O)[C@@H](C)O)C(C)C)[C@@H](C)O [Peptide 6] (H-K([γGlu-γGlu-C20 diacid])CNTATCATQRLADFLRHSSPNFGAIPSSTNVGSDTY-NH2; disulfide 2-7)
3,>45,100,,,,CC(C)C[C@H](NC(=O)[C@H](CCCNC(=N)N)NC(=O)[C@H](CCC(N)=O)NC(=O)[C@@H](NC(=O)[C@H](C)NC(=O)[C@@H]1CSSC[C@H](NC(=O)[C@@H](N)CCCCNC(=O)CC[C@H](NC(=O)CC[C@H](NC(=O)CCCCCCCCCCCCCCCCCCC(=O)O)C(=O)O)C(=O)O)C(=O)N[C@@H](CC(N)=O)C(=O)N[C@@H]([C@@H](C)O)C(=O)N[C@@H](C)C(=O)N[C@@H]([C@@H](C)O)C(=O)N1)[C@@H](C)O)C(=O)N[C@@H](C)C(=O)N[C@@H](CC(=O)O)C(=O)N[C@@H](Cc1ccccc1)C(=O)N[C@@H](CC(C)C)C(=O)N[C@@H](CCCNC(=N)N)C(=O)N[C@@H](Cc1c[nH]cn1)C(=O)N[C@@H](CO)C(=O)N[C@@H](CO)C(=O)N[C@@H](CC(N)=O)C(=O)N1CCC[C@H]1C(=O)N[C@@H](Cc1ccccc1)C(=O)NCC(=O)N[C@@H](C)C(=O)N1CCC[C@H]1C(=O)N[C@@H](CC(C)C)C(=O)N[C@@H](CO)C(=O)N[C@@H](CO)C(=O)N[C@H](C(=O)N[C@@H](CC(N)=O)C(=O)N[C@H](C(=O)NCC(=O)N[C@@H](CO)C(=O)N[C@@H](CC(=O)O)C(=O)N[C@H](C(=O)N[C@@H](Cc1ccc(O)cc1)C(N)=O)[C@@H](C)O)C(C)C)[C@@H](C)O [Peptide 7] (H-K([γGlu-γGlu-C20 diacid])CNTATCATQRLADFLRHSSNPFGAPLSSTNVGSDTY-NH2; disulfide 2-7)
,,,2.7,34,0,CC[C@H](C)[C@H](NC(=O)[C@H](C)NC(=O)CNC(=O)[C@H](Cc1ccccc1)NC(=O)[C@H](CC(N)=O)NC(=O)[C@@H]1CCCN1C(=O)[C@H](CO)NC(=O)[C@H](CO)NC(=O)[C@H](Cc1c[nH]cn1)NC(=O)[C@H](CCCNC(=N)N)NC(=O)[C@H](CC(C)C)NC(=O)[C@H](Cc1ccccc1)NC(=O)[C@H](CC(N)=O)NC(=O)[C@H](C)NC(=O)[C@H](CC(C)C)NC(=O)[C@H](CCCNC(=N)N)NC(=O)[C@H](CCC(N)=O)NC(=O)[C@@H](NC(=O)[C@H](C)NC(=O)[C@@H]1CSSC[C@H](NC(=O)[C@H](CCCCN)NC(=O)COCCOCCNC(=O)COCCOCCNC(=O)CC[C@H](NC(=O)CCCCCCCCCCCCCCCCCCC(=O)O)C(=O)O)C(=O)N[C@@H](CC(N)=O)C(=O)N[C@@H]([C@@H](C)O)C(=O)N[C@@H](C)C(=O)N[C@@H]([C@@H](C)O)C(=O)N1)[C@@H](C)O)C(=O)N1CCC[C@H]1C(=O)N[C@@H](CO)C(=O)N[C@@H](CO)C(=O)N[C@H](C(=O)N[C@@H](CC(N)=O)C(=O)N[C@H](C(=O)NCC(=O)N[C@@H](CO)C(=O)N[C@@H](CC(N)=O)C(=O)N[C@H](C(=O)N[C@@H](Cc1ccc(O)cc1)C(N)=O)[C@@H](C)O)C(C)C)[C@@H](C)O [Peptide 10]
,,,2.6,40,74,CC[C@H](C)[C@H](NC(=O)[C@H](C)NC(=O)CNC(=O)[C@H](Cc1ccccc1)NC(=O)[C@H](CC(N)=O)NC(=O)[C@@H]1CCCN1C(=O)[C@H](CO)NC(=O)[C@H](CO)NC(=O)[C@H](Cc1c[nH]cn1)NC(=O)[C@H](CCCNC(=N)N)NC(=O)[C@H](CC(C)C)NC(=O)[C@H](Cc1ccccc1)NC(=O)[C@H](CC(N)=O)NC(=O)[C@H](C)NC(=O)[C@H](CC(C)C)NC(=O)[C@H](CCCNC(=N)N)NC(=O)[C@H](CCC(N)=O)NC(=O)[C@@H](NC(=O)[C@H](C)NC(=O)[C@@H]1CSSC[C@H](NC(=O)[C@H](CCCCN)NC(=O)CC[C@H](NC(=O)CCCCCCCCCCCCCCCCCCC(=O)O)C(=O)O)C(=O)N[C@@H](CC(N)=O)C(=O)N[C@@H]([C@@H](C)O)C(=O)N[C@@H](C)C(=O)N[C@@H]([C@@H](C)O)C(=O)N1)[C@@H](C)O)C(=O)N1CCC[C@H]1C(=O)N[C@@H](CO)C(=O)N[C@@H](CO)C(=O)N[C@H](C(=O)N1CCC[C@H]1C(=O)N[C@H](C(=O)NCC(=O)N[C@@H](CO)C(=O)N[C@@H](CCC(=O)O)C(=O)N[C@H](C(=O)N[C@@H](Cc1ccc(O)cc1)C(N)=O)[C@@H](C)O)C(C)C)[C@@H](C)O [Peptide 11] ({C20 diacid-γGlu}-KCNTATCATQRLANFLRHSSPNFGAIPSSTPVGSETY-NH2; disulfide 2-7)
,,,3.9,>45,78,CC[C@H](C)[C@H](NC(=O)[C@H](C)NC(=O)CNC(=O)[C@H](Cc1ccccc1)NC(=O)[C@H](CC(N)=O)NC(=O)[C@@H]1CCCN1C(=O)[C@H](CO)NC(=O)[C@H](CO)NC(=O)[C@H](Cc1c[nH]cn1)NC(=O)[C@H](CCCNC(=N)N)NC(=O)[C@H](CC(C)C)NC(=O)[C@H](Cc1ccccc1)NC(=O)[C@H](CCC(=O)O)NC(=O)[C@H](C)NC(=O)[C@H](CC(C)C)NC(=O)[C@H](CCCNC(=N)N)NC(=O)[C@H](CCC(N)=O)NC(=O)[C@@H](NC(=O)[C@H](C)NC(=O)[C@@H]1CSSC[C@H](NC(=O)[C@H](CCCCN)NC(=O)CC[C@H](NC(=O)CCCCCCCCCCCCCCCCCCC(=O)O)C(=O)O)C(=O)N[C@@H](CC(N)=O)C(=O)N[C@@H]([C@@H](C)O)C(=O)N[C@@H](C)C(=O)N[C@@H]([C@@H](C)O)C(=O)N1)[C@@H](C)O)C(=O)N1CCC[C@H]1C(=O)N[C@@H](CO)C(=O)N[C@@H](CO)C(=O)N[C@H](C(=O)N[C@@H](CC(N)=O)C(=O)N[C@H](C(=O)NCC(=O)N1CCC[C@H]1C(=O)N[C@@H](CC(N)=O)C(=O)N[C@H](C(=O)N[C@@H](Cc1ccc(O)cc1)C(N)=O)[C@@H](C)O)C(C)C)[C@@H](C)O [Peptide 12] ({C20 diacid-γGlu}-KCNTATCATQRLAEFLRHSSPNFGAIPSSTNVGPNTY-NH2; disulfide 2-7)
,,,2.1,35,99,CC[C@H](C)[C@H](NC(=O)[C@H](C)NC(=O)CNC(=O)[C@H](Cc1ccccc1)NC(=O)[C@H](CC(N)=O)NC(=O)[C@@H]1CCCN1C(=O)[C@H](CO)NC(=O)[C@H](CO)NC(=O)[C@H](Cc1c[nH]cn1)NC(=O)[C@H](CCCNC(=N)N)NC(=O)[C@H](CC(C)C)NC(=O)[C@H](Cc1ccccc1)NC(=O)[C@H](CC(N)=O)NC(=O)[C@H](C)NC(=O)[C@H](CC(C)C)NC(=O)[C@H](CCCNC(=N)N)NC(=O)[C@H](CCC(N)=O)NC(=O)[C@@H](NC(=O)[C@H](C)NC(=O)[C@@H]1CSSC[C@H](NC(=O)[C@H](CCCCN)NC(=O)CC[C@H](NC(=O)CCCCCCCCCCCCCCCCCCC(=O)O)C(=O)O)C(=O)N[C@@H](CC(N)=O)C(=O)N[C@@H]([C@@H](C)O)C(=O)N[C@@H](C)C(=O)N[C@@H]([C@@H](C)O)C(=O)N1)[C@@H](C)O)C(=O)N1CCC[C@H]1C(=O)N[C@@H](CO)C(=O)N[C@@H](CO)C(=O)N[C@H](C(=O)N[C@@H](CC(N)=O)C(=O)N[C@H](C(=O)NCC(=O)N[C@@H](CO)C(=O)N[C@@H](CCCCN)C(=O)N[C@H](C(=O)N[C@@H](Cc1ccc(O)cc1)C(N)=O)[C@@H](C)O)C(C)C)[C@@H](C)O [Peptide 13]
,,,3.0,>45,100,CC[C@H](C)[C@H](NC(=O)[C@H](C)NC(=O)CNC(=O)[C@H](Cc1ccccc1)NC(=O)[C@H](CC(N)=O)NC(=O)[C@@H]1CCCN1C(=O)[C@H](CO)NC(=O)[C@H](CO)NC(=O)[C@H](Cc1c[nH]cn1)NC(=O)[C@H](CCCNC(=N)N)NC(=O)[C@H](CC(C)C)NC(=O)[C@H](Cc1ccccc1)NC(=O)[C@H](CC(N)=O)NC(=O)[C@H](C)NC(=O)[C@H](CC(C)C)NC(=O)[C@H](CCCNC(=N)N)NC(=O)[C@H](CCC(N)=O)NC(=O)[C@@H](NC(=O)[C@H](C)NC(=O)[C@@H]1CSSC[C@H](NC(=O)[C@@H](N)CCCCNC(=O)CC[C@H](NC(=O)CCCCCCCCCCCCCCCCCCC(=O)O)C(=O)O)C(=O)N[C@@H](CC(N)=O)C(=O)N[C@@H]([C@@H](C)O)C(=O)N[C@@H](C)C(=O)N[C@@H]([C@@H](C)O)C(=O)N1)[C@@H](C)O)C(=O)N1CCC[C@H]1C(=O)N[C@@H](CO)C(=O)N[C@@H](CO)C(=O)N[C@H](C(=O)N[C@@H](CC(N)=O)C(=O)N[C@H](C(=O)NCC(=O)N[C@@H](CO)C(=O)N[C@@H](CCCCN)C(=O)N[C@H](C(=O)N[C@@H](Cc1ccc(O)cc1)C(N)=O)[C@@H](C)O)C(C)C)[C@@H](C)O [Peptide 14]
